Values quoted from earlier work as cited in the PKSmart pharmacokinetics tables (Seal et al. 2025).

How the values were obtained:
[1] = not given per row; by the article one of three: Lombardo et al. 2013, J Clin Pharmacol 53:178, doi 10.1177/0091270012440282; 'New Drugs at FDA', novel drug approvals for 2021 and 2022 (the article's reference 43); Yap, Li, Chen 2006, J Mol Graph Model 24:383, doi 10.1016; settings: human; for fraction unbound: plasma
[2] = Lombardo, Berellini, Obach 2018, Drug Metab Dispos 46:1466, doi 10.1124/dmd.118.082966; settings: human; for MRT / Vd / clearance / half-life: in vivo, iv; for fraction unbound: plasma
[3] = Lombardo et al. 2013, J Clin Pharmacol 53:178, doi 10.1177/0091270012440282; settings: for Vd / clearance: in vivo, iv; for fraction unbound: plasma

SMILES | clearance ([1]; in vivo) [mL/min/kg] | MRT [2] [h] | Vd [2] [L/kg] | clearance [2] [mL/min/kg] | half-life [2] [h] | Vd ([3]; rat) [L/kg] | clearance ([3]; rat) [mL/min/kg] | other results
CC12CCC(=O)C=C1C1CC1C1C2CCC2(C)C1C1CC1C21CCC(=O)O1 (stereo not given) |  |  |  |  |  |  |  | half-life ([1]; in vivo): 34 h; fraction unbound [1]: 0.04
CCC(C)C(=O)O[C@@H]1C[C@@H](O)C=C2C=C[C@@H](C)[C@H](CC[C@H](O)C[C@H](O)CC(=O)O)[C@H]21 (stereo not given in full) | 8.5 |  |  |  |  |  |  | 
C[C@H](CN1CC(=O)NC(=O)C1)N1CC(=O)NC(=O)C1 | 4.42 |  |  |  |  |  |  | 
Cc1ccccc1OC[C@@H](O)CNCCOc1ccc(C(N)=O)cc1 | 10.8 |  |  |  |  |  |  | 
C[C@H]1CN(C2CCC(C#N)(c3ccc(F)cc3)CC2)CC[C@]1(C(=O)O)c1ccccc1 (stereo not given in full) | 0.43 |  |  |  |  |  |  | 
C[C@@H]1COc2c(N3CCN(C)CC3)c(F)cc3c(=O)c(C(=O)O)cn1c23 | 2.58 |  |  |  |  |  |  | 
CC(C)[N+](C)(CCOC(=O)C1c2ccccc2Oc2ccccc21)C(C)C | 18.9 |  |  |  |  |  |  | 
NS(=O)(=O)c1cc2c(cc1Cl)N=CNS2(=O)=O | 4.5 |  |  |  |  |  |  | 
CCCCCc1cc(O)c2c(c1)OC(C)(C)[C@H]1CCC(C)=C[C@H]21 | 3.33 |  |  |  |  |  |  | 
CN1c2ccccc2[C@H](NCCCCCCC(=O)O)c2ccc(Cl)cc2S1(=O)=O | 3.43 |  |  |  |  |  |  | 
NS(=O)(=O)c1cc(-c2nn[nH]n2)c(NCc2cccs2)cc1Cl | 1.29 |  |  |  |  |  |  | 
OCC(O)CO | 3.55 |  |  |  |  |  |  | 
CON=C(C(=O)NC1C(=O)N2C(C(=O)O)=C(C)CS[C@@H]12)c1csc(N)n1 (stereo not given in full) | 2 |  |  |  |  |  |  | 
CSc1ccc(OCc2ncc([N+](=O)[O-])n2C)cc1 |  |  |  |  |  |  |  | fraction unbound [1]: 0.02
Cc1cc(C=CC#N)cc(C)c1Nc1ccnc(Nc2ccc(C#N)cc2)n1 |  |  |  |  |  |  |  | Vd ([1]; in vivo): 2.71 L/kg; half-life ([1]; in vivo): 44.5 h; fraction unbound [1]: 0.3
CCCCC1(CCCC)CN(c2ccccc2)c2cc(SC)c(OCC(=O)NC(C(=O)NC(CC)C(=O)O)c3ccc(O)cc3)cc2S(=O)(=O)N1 (stereo not given) |  |  |  |  |  |  |  | half-life ([1]; in vivo): 2.36 h; fraction unbound [1]: 0.01

SMILES | clearance ([1]; in vivo) [mL/min/kg] | MRT [2] [h] | Vd [2] [L/kg] | clearance [2] [mL/min/kg] | half-life [2] [h] | Vd ([3]; rat) [L/kg] | clearance ([3]; rat) [mL/min/kg] | other results
OCCOCCN1CCN(C2=Nc3ccccc3Sc3ccccc32)CC1 | 19.1 |  |  |  |  |  |  | 
CCOCCn1c(N2CCCN(C)CC2)nc2ccccc21 | 12.5 |  |  |  |  |  |  | 
NC(=O)c1cc[n+](COC[n+]2ccccc2C=NO)cc1 | 3.2 |  |  |  |  |  |  | 
CC(C)NC[C@@H](O)COc1ccc(COCCOC(C)C)cc1 | 3.55 |  |  |  |  |  |  | 
C#C[C@]1(OS(=O)(=O)O)CC[C@H]2[C@@H]3CCc4cc(O)ccc4[C@H]3CC[C@@]21C |  | 7.8 | 0.61 | 1.3 | 9.3 |  |  | Vd ([3]; monkey): 8.7 L/kg; clearance ([3]; monkey): 13 mL/min/kg
NCc1ccccc1CC(=O)NC1C(=O)N2C(C(=O)O)=C(CSc3nnnn3CC(=O)O)CS[C@H]12 (stereo not given in full) |  | 4.3 | 0.17 | 0.66 | 3 | 0.5 | 5.4 | fraction unbound [2]: 0.19; Vd ([3]; dog): 0.5 L/kg; clearance ([3]; dog): 6.5 mL/min/kg
Cn1c(=O)c2c(ncn2CC(O)CO)n(C)c1=O (stereo not given) |  | 1.5 | 0.42 | 4.8 | 1.7 | 1.04 | 24.7 | 
NC1(C(=O)O)CC1 |  | 7.8 | 0.73 | 1.5 | 5.9 | 0.64 | 3.2 | Vd ([3]; dog): 0.7 L/kg; clearance ([3]; dog): 0.4 mL/min/kg; Vd ([3]; monkey): 0.72 L/kg; clearance ([3]; monkey): 3.1 mL/min/kg
COc1cccc([C@@]2(O)CCCC[C@@H]2CN(C)C)c1 |  | 7.2 | 2.8 | 6.5 | 5.8 | 3.86 | 63.5 | Vd ([3]; dog): 3.01 L/kg; clearance ([3]; dog): 54.6 mL/min/kg; fraction unbound ([3]; dog): 0.745; fraction unbound ([3]; rat): 0.75
CC[C@@]1(O)C(=O)OCc2c1cc1n(c2=O)Cc2cc3c(N)cccc3nc2-1 |  | 5.6 | 2.2 | 6.5 | 7 | 5 | 150 | fraction unbound [2]: 0.003
CCCCNC(=O)NS(=O)(=O)c1ccc(C)cc1 |  | 9.5 | 0.12 |  | 7 | 0.13 | 0.42 | 
O=C(O)CC(NC(=O)CP(=O)(O)O)C(=O)O (stereo not given) |  | 4.51 | 0.33 | 1.22 | 4.78 | 1.1 | 17.4 | Vd ([3]; dog): 0.29 L/kg; clearance ([3]; dog): 4.1 mL/min/kg; Vd ([3]; monkey): 0.2 L/kg; clearance ([3]; monkey): 2.3 mL/min/kg
CN1CCc2cccc3c2[C@H]1Cc1ccc(O)c(O)c1-3 |  | 0.67 | 1.6 | 40 |  |  |  | fraction unbound [2]: 0.05; fraction unbound ([3]; rat): 0.1
CCN1CCN(C(=O)NC(C(=O)NC2C(=O)N3C(C(=O)O)C(C)(C)S[C@H]23)c2ccccc2)C(=O)C1=O (stereo not given in full) |  | 1.1 | 0.27 |  | 0.96 | 0.39 | 17.7 | Vd ([3]; dog): 0.24 L/kg; clearance ([3]; dog): 6.6 mL/min/kg; fraction unbound ([3]; dog): 0.84; Vd ([3]; monkey): 0.26 L/kg; clearance ([3]; monkey): 7.2 mL/min/kg; fraction unbound ([3]; monkey): 0.95; fraction unbound ([3]; rat): 0.61
CC(=O)Oc1ccccc1C(=O)O |  | 0.3 | 0.22 | 12 | 0.26 | 0.4 | 87 | fraction unbound [2]: 0.68
C=CC1=C(C(=O)O)N2C(=O)C(=NC(=O)C(NOCC(=O)O)c3csc(N)n3)[C@H]2SC1 (stereo not given in full) |  |  | 0.24 | 1 | 3.2 | 0.4 | 6 | Vd ([3]; dog): 0.24 L/kg; clearance ([3]; dog): 0.4 mL/min/kg; fraction unbound ([3]; dog): 0.07; fraction unbound ([3]; rat): 0.4
